# In patent publication US12522606B2, “Modified pyrrolo- and pyrazolo-pyrimidines for prostate cancer therapy” (University of Washington, priority 2020, dated 2026):
# Like-named read-outs stand apart in the source and are kept apart here.
# Assays:
# [1] = system: LNCaP cells; assay: Cell death in LNCaP cells, alone or in combination, 24 h (FIG. 6); type: cell-based
# Experimental: FIG. 6 evaluation of Compound 1 and metformin in LNCaP cells. LNCaP cells were treated with Compound 1, oligomycin (Oli), 2-deoxy-d-glucose (2-DG), or metformin (Met), alone or in combination for 24 h.
# FIGS. 2-4 provide additional results on the activity of the compounds of the disclosure. […] Co-administration of Compound 1 and metformin is illustrated in FIG. 6. LNCaP cells were treated with Compound 1, oligomycin (Oli), 2-deoxy-d-glucose (2-DG), or metformin (Met), alone or in combination for 24 h. […] None of compounds were sufficient to kill cells under the same conditions on their own.
# [2] = system: prostate cancer tumor; details: 60 mg/kg, 2× daily; cited from earlier work
# [3] = background statement; cited from earlier work
# [4] = background statement; cited from earlier work; remark: listed apart in the source
# [5] = system: LNCaP95; assay: MTT proliferation assay, LNCaP95; type: cell-based; details: Homo sapiens, LNCaP-95; for EC50: Table 1, LNCaP95 (AR+ PCa), unit inferred; for inhibition at 10 µM: read-out: MTT % inhib @ 10 μM LNCaP95
# Experimental: (§1) Anti-tumor activity was determined by screening a series of compounds against the castrate-resistant, androgen-receptor-positive, prostate cancer cell line LNCaP95. […] Inhibition of proliferation was determined based on the level of LNCaP95 cell growth suppression using an MTT assay (NAD(P)H-dependent cellular oxidoreductase enzymatic activities)) read at 72 and 96 hours after addition of the compounds. […] Each cell line was be tested in quadruplicate.
# [6] = Plasma protein binding, mouse; type: in vitro ADME
# [7] = in vitro; details: human, CRL-8155 lymphoblastoid cell line
# [8] = in vitro; details: human, HepG2 hepatoma cell line
# [9] = system: PC3; assay: MTT proliferation assay, PC3; details: Homo sapiens; for inhibition at 10 µM: PC-3, read-out: MTT % inhib @ 10 μM PC3
# [10] = system: C4-2; assay: Proliferation EC50, C4-2; type: cell-based; details: Table 2
# Experimental: as §1
# (§2) C4-2 and C4-2B3 are derived from LNCaP but have different characteristics. […] LNCaP, C4-2 and C4-2B require androgen receptor but only LNCaP line is androgen sensitive.
# [11] = system: C4-2B; assay: Proliferation EC50, C4-2B; type: cell-based; details: Table 2
# Experimental: as §1, §2
# [12] = system: 16D; assay: Proliferation EC50, 16D; type: cell-based; details: Table 2
# [13] = system: 42F; assay: Proliferation EC50, 42F; type: cell-based; details: Table 2
# [14] = system: 42D; assay: Proliferation EC50, 42D; type: cell-based; details: Table 2
# [15] = system: LAPC4; assay: Proliferation EC50, LAPC4; type: cell-based; details: Homo sapiens, Table 2
# Experimental: as §1, §2
# (§3) RWPE-1 is immortalized benign prostate hypertrophic cell line. […] LAPC4 is AR+ castrate resistant line not LNCaP-based prostate cancer. […] HFF1 is human foreskin fibroblast cell line. NCI-H660 is neuroendocrine (NE) prostate cancer human AR− cell line. MSKCC-EF1 is NE human prostate AR- or nearly negative prostate cancer cell line. MCF7 is human breast cancer cell line. U2OS is human osteosarcoma cell line. HepG2 is hepatoma liver tumor cell line. CRL8155 is lymphoblastoid cell line.
# [16] = system: NCI-H660; assay: Proliferation EC50, NCI-H660; type: cell-based; details: Homo sapiens, Table 2
# Experimental: as §1, §2, §3
# [17] = system: MSKCC-EF1; assay: Proliferation EC50, MSKCC-EF1; type: cell-based; details: Homo sapiens; Table 2
# Experimental: as §1, §2, §3
# [18] = system: APIPC; assay: Proliferation EC50, APIPC; type: cell-based; details: Table 2
# [19] = system: DU145; assay: Proliferation EC50, DU145; type: cell-based; details: Homo sapiens, DU-145; Table 2
# [20] = system: MCF7; assay: Proliferation EC50, MCF7; type: cell-based; details: Homo sapiens, Table 2
# Experimental: as §1, §2, §3
# [21] = system: RWPE-1; assay: Proliferation EC50, RWPE-1; type: cell-based; details: Homo sapiens, Table 2
# Experimental: as §1, §2, §3
# [22] = system: HFF-1; assay: Proliferation EC50, HFF-1; type: cell-based; details: Homo sapiens, Table 2
# Experimental: as §1, §2, §3
# [23] = system: U2OS; assay: Proliferation EC50, U2OS; type: cell-based; details: Homo sapiens, Table 2
# Experimental: as §1, §2, §3
# [24] = Plasma protein binding, human; type: in vitro ADME
# [25] = Plasma protein binding, rat; type: in vitro ADME
# [26] = PK Oral (MMV); type: in vivo; details: dose 25 mg/kg
# [27] = system: intracellular ATP in LNCaP95; assay: Intracellular ATP in LNCaP95 (CellTiter-Glo); type: cell-based; details: FIG. 1, without oligomycin
# Experimental: The relative intracellular levels of ATP were evaluated by CellTiter-Glo® Luminescent Cell Viability Assay. 2-DG is 2-deoxy-d-glucose.
# OXPHOS is oxidative phosphorylation; oligo is oligomycin; AA is antimycin A; ETX is etomoxir; FCCP is carbonyl cyanide-4-trifluoromethoxy)phenylhydrazone; and Rot is rotenone.
# [28] = system: ATP levels; assay: Time course of ATP levels, Compound 1 with oligomycin (FIG. 4); type: cell-based; details: co-administration with oligomycin
# [29] = Cell death when mitochondria respiration is blocked (FIGS. 5A-5C); type: cell-based
# [30] = target: hERG (Homo sapiens, UniProt Q12809); assay: hERG; details: Table 1; last column beside CC50 (μM), own unit not clearly printed
# [31] = system: LNCaP; assay: MTT proliferation assay, LNCaP; details: Homo sapiens
# [32] = system: HEPG2; assay: Cell toxicity, HEPG2 hepatoma cell line; details: read-out: EC50 HepG2; Table 2
# [33] = system: CRL-8155; assay: Cell toxicity, CRL-8155 lymphoblastoid cell line; details: read-out: EC50 CRL8155; Table 2
# Chain of hERG (Q12809 whole entry): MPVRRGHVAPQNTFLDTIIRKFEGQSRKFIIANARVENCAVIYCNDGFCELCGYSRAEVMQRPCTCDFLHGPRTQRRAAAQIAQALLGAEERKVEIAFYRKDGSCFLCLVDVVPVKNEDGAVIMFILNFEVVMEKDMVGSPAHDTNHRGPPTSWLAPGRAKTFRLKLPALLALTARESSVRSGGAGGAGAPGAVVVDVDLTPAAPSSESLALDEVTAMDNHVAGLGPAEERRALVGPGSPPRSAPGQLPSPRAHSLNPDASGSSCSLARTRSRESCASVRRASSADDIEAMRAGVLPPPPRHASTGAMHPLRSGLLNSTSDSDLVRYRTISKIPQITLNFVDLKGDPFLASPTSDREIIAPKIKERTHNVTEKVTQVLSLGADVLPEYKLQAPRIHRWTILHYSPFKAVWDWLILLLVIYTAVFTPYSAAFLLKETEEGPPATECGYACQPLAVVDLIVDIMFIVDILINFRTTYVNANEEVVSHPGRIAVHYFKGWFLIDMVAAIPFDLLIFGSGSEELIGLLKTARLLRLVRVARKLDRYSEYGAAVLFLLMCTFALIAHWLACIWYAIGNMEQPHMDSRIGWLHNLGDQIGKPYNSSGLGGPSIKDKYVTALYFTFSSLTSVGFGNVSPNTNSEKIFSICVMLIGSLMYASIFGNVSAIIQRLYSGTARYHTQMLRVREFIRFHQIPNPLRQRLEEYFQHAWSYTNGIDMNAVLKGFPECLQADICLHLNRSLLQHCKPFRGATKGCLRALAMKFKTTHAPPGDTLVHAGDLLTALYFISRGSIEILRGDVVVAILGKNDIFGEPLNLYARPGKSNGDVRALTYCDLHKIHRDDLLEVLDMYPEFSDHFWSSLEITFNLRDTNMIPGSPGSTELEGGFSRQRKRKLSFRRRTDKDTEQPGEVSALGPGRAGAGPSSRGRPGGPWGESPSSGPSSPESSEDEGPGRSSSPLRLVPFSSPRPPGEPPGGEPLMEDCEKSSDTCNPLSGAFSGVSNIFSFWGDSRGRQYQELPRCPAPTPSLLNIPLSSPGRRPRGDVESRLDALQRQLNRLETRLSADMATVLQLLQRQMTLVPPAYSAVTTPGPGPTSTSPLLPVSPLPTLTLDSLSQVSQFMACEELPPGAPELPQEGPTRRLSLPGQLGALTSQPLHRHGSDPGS
structure (smiles),measurement,setting,value
"O=CC[C@@H](O)[C@H](O)[C@H](O)CO [Example 2-DG, 2-deoxy-d-glucose, reference compound]",cell death in combination with oligomycin or metformin,[1],cause cell death
Fc1ccc(Cl)cc1-c1nc(Nc2ccncc2)c2nccnc2n1 [SD-208],prostate cancer tumor growth in vivo,[2],decrease in prostate cancer tumor growth
CC(C)(C)n1nc(-c2cccc3ccccc23)c2c(N)ncnc21 [Example 1NA-PP1],solubility,[3],low solubility
same,metabolism,[4],quickly metabolized
"CNc1ncnc2c1c(-c1ccc3cc(OC4CC4)ccc3c1)cn2CC(C)(C)O [Example 15, 1-(5-(6-cyclopropoxynaphthalen-2-yl)-4-(methylamino)-7H-pyrrolo[2,3-d]pyrimidin-7-yl)-2-methylpropan-2-ol]",EC50,[5],8 µM
same,inhibition at 10 µM,[5],53.2%
same,fraction unbound,[6],0.0017
same,CC50,[7],> 80 µM
same,CC50,[8],> 80 µM
same,inhibition at 10 µM,[9],2.8%
same,EC50,[9]; read-out: EC50 PC3,> 20 µM
"CCOc1ccc2cc(-c3cn(CC(C)(C)OC)c4ncnc(NC)c34)ccc2c1 [Example 18, 5-(6-ethoxynaphthalen-2-yl)-7-(2-methoxy-2-methylpropyl)-N-methyl-7H-pyrrolo[2,3-d]pyrimidin-4-amine]",EC50,[5],3 µM
same,inhibition at 10 µM,[5],44.9%
same,fraction unbound,[6],0.0077
same,CC50,[7],> 80 µM
same,CC50,[8],> 80 µM
same,inhibition at 10 µM,[9],21%
same,EC50,[9]; read-out: EC50 PC3,> 20 µM
"CNc1ncnc2c1c(-c1ccc3cc(OC4CC4)ccc3c1)nn2CC(C)(C)O [Example 1, 1-(3-(6-cyclopropoxynaphthalen-2-yl)-4-(methylamino)-1H-pyrazolo[3,4-d]pyrimidin-1-yl)-2-methylpropan-2-ol]",EC50,[5],5 µM
same,inhibition at 10 µM,[5],51.5%
same,EC50,[10],12 µM
same,EC50,[11],12 µM
same,EC50,[12],10 µM
same,EC50,[13],20 µM
same,EC50,[14],10 µM
same,EC50,[15],7 µM
same,EC50,[16],10 µM
same,EC50,[17],5 µM
same,EC50,[18],10 µM
same,EC50,[19],> 20 µM
same,EC50,[20],8 µM
same,EC50,[21],> 20 µM
same,EC50,[22],> 20 µM
same,EC50,[23],> 20 µM
same,fraction unbound,[6],0.012
same,fraction unbound,[24],0.007
same,fraction unbound,[25],0.04
same,AUC,[26],28935 µmol·min/L
same,Cmax,[26]; in vivo,34 µM
same,Tmax,[26]; in vivo,3 h
same,"change in ATP levels, compound alone",[27],no change
same,earliest time at which ATP levels are altered,[28],10 min
same,cell death in combination with oligomycin or metformin,[1],cause cell death
same,cell death when mitochondria respiration is blocked,[29],induces cell death
same,hERG,[30],13.9
same,CC50,[7],> 80 µM
same,CC50,[8],> 80 µM
same,EC50,"[9]; PC-3, read-out: EC50 PC3",> 20 µM
same,inhibition at 10 µM,[9],16.8%
same,EC50,[9]; read-out: EC50 PC3,> 20 µM
same,EC50,[31]; read-out: EC50 LNCaP,8 µM
same,inhibition at 10 µM,[31]; read-out: MTT % inhib @ 10 μM LNCaP,35.4%
same,EC50,[32],> 40 µM
same,EC50,[33],> 40 µM
